For 5 compounds, IC50 and viability, T/C results are on record in PubChem BioAssay AID1845209 (Molecular Pharmacology Branch, DTP, NCI, 2023).

Several values for one entry are separate records, joined by “and”; a condition that tells them apart may be missing. Equal entries are not always repeated.

This test has as its system NCI-H211 tumor spheroids, viability percent test/control. In words: Anticancer human tumor NCI-H211 cell line growth inhibition.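 As to all read-outs here: spheroids exposed to agents for seven days before readout.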 The note with it: spheroids with HUVEC and MSC; for viability, T/C: stronger effect = lower value. The procedure, abridged: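 Complex tumor spheroids combined malignant cells with endothelial cells and mesenchymal stem cells. DNA-damaging drugs and DNA repair inhibitors were tested alone and in combination, at half-log dilutions down from clinical Cmax (top 10 microM if Cmax unknown), 0.25% DMSO final.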

Setting [1] is: curve of first compound, second compound 0.003 µM.

With `Cc1cc(C)c(CNC(=O)c2cc(-c3ccc(CN4CCOCC4)cc3)cc3c2cnn3C2CCCC2)c(=O)[nH]1` + COc1cc2c(cc1O)CCNC21CSC2c3c(OC(C)=O)c(C)c4c(c3C(COC1=O)N1C(O)C3Cc5cc(C)c(OC)c(O)c5C(C21)N3C)OCO4, the IC50 by setting is: (curve of first compound, second compound 30 pM) 2730 nM; (curve of first compound, second compound 94.9 pM) < 31.6 nM; (curve of first compound, second compound 0.0003 µM) < 31.6 nM; (curve of first compound, second compound 0.000949 µM) < 31.6 nM; under setting [1], < 31.6 nM. The viability, T/C was 98.1% (second compound 30 pM, first compound 0.0316 µM); 113% (second compound 30 pM, first compound 0.1 µM); 99.7% (second compound 30 pM, first compound 0.316 µM); 73.2% (second compound 30 pM, first compound 1 µM); 48.8% (second compound 30 pM, first compound 3.16 µM); 7.15% (second compound 30 pM, first compound 10 µM). In addition, the viability, T/C is, setting by setting: (second compound 94.9 pM, first compound 0.0316 µM) 17.6%; (second compound 94.9 pM, first compound 0.1 µM) 12.4%; (second compound 94.9 pM, first compound 0.316 µM) 13.5%; (second compound 94.9 pM, first compound 1 µM) 4.52%; (second compound 94.9 pM, first compound 3.16 µM) 2.44%; (second compound 94.9 pM, first compound 10 µM) 0.74%. Besides, the viability, T/C (second compound 0.0003 µM, first compound 0.0316 µM) was 0.75%; the viability, T/C (second compound 0.0003 µM, first compound 0.1 µM) was 0.76%; the viability, T/C (second compound 0.0003 µM, first compound 0.316 µM) is 0.76%; the viability, T/C (second compound 0.0003 µM, first compound 1 µM) is 0.76%; the viability, T/C (second compound 0.0003 µM, first compound 3.16 µM) was 1.22%; the viability, T/C (second compound 0.0003 µM, first compound 10 µM) is 1.03%. In addition, the viability, T/C runs as follows: (second compound 0.000949 µM, first compound 0.0316 µM) 0.66%; (second compound 0.000949 µM, first compound 0.1 µM) 0.82%; (second compound 0.000949 µM, first compound 0.316 µM) 0.75%; (second compound 0.000949 µM, first compound 1 µM) 0.96%; (second compound 0.000949 µM, first compound 3.16 µM) 0.65%; (second compound 0.000949 µM, first compound 10 µM) 0.68%. Moreover, the viability, T/C reads like this: (second compound 0.003 µM, first compound 0.0316 µM) 0.13%; (second compound 0.003 µM, first compound 0.1 µM) 0.11%; (second compound 0.003 µM, first compound 0.316 µM) 0.11%; (second compound 0.003 µM, first compound 1 µM) 0.61%; (second compound 0.003 µM, first compound 3.16 µM) 0.4%; (second compound 0.003 µM, first compound 10 µM) 0.33%.

For the compound `O=C(c1cc(Cc2n[nH]c(=O)c3ccccc23)ccc1F)N1CCN(C(=O)C2CC2)CC1` + CC[C@@]1(O)C(=O)OCc2c1cc1n(c2=O)Cc2cc3c(CN(C)C)c(O)ccc3nc2-1, the half-inhibitory concentration (IC50) by setting is: under setting [1], < 94.9 nM; (curve of first compound, second compound 0.00949 µM) < 94.9 nM; (curve of first compound, second compound 0.03 µM) < 94.9 nM; (curve of first compound, second compound 0.0949 µM) < 94.9 nM; (curve of first compound, second compound 0.3 µM) < 94.9 nM. Moreover, the viability, T/C reads like this: (second compound 0.003 µM, first compound 0.0949 µM) 9.62%; (second compound 0.003 µM, first compound 0.3 µM) 3.33%; (second compound 0.003 µM, first compound 0.949 µM) 1.25%; (second compound 0.003 µM, first compound 3 µM) 1.06%; (second compound 0.003 µM, first compound 9.49 µM) 0.76%; (second compound 0.003 µM, first compound 30 µM) 0.99%. Also, the viability, T/C (second compound 0.00949 µM, first compound 0.0949 µM) was 1.09%; the viability, T/C (second compound 0.00949 µM, first compound 0.3 µM) was 1.14%; the viability, T/C (second compound 0.00949 µM, first compound 0.949 µM) is 1.15%; the viability, T/C (second compound 0.00949 µM, first compound 3 µM) was 1.2%; the viability, T/C (second compound 0.00949 µM, first compound 9.49 µM) is 1.06%; the viability, T/C (second compound 0.00949 µM, first compound 30 µM) is 0.96%. The viability, T/C runs as follows: (second compound 0.03 µM, first compound 0.0949 µM) 1.07%; (second compound 0.03 µM, first compound 0.3 µM) 1.19%; (second compound 0.03 µM, first compound 0.949 µM) 1.2%; (second compound 0.03 µM, first compound 3 µM) 1.12%; (second compound 0.03 µM, first compound 9.49 µM) 0.99%; (second compound 0.03 µM, first compound 30 µM) 0.78%. Besides, the viability, T/C by setting is: (second compound 0.0949 µM, first compound 0.0949 µM) 1.07%; (second compound 0.0949 µM, first compound 0.3 µM) 1.03%; (second compound 0.0949 µM, first compound 0.949 µM) 1.31%; (second compound 0.0949 µM, first compound 3 µM) 1.37%; (second compound 0.0949 µM, first compound 9.49 µM) 0.98%; (second compound 0.0949 µM, first compound 30 µM) 1.09%. Also, the viability, T/C was 1.03% (second compound 0.3 µM, first compound 0.0949 µM); 1.25% (second compound 0.3 µM, first compound 0.3 µM); 1% (second compound 0.3 µM, first compound 0.949 µM); 1.05% (second compound 0.3 µM, first compound 3 µM); 1% (second compound 0.3 µM, first compound 9.49 µM); 0.91% (second compound 0.3 µM, first compound 30 µM).

For `Cn1ncnc1[C@H]1c2n[nH]c(=O)c3cc(F)cc(c23)N[C@@H]1c1ccc(F)cc1`, the viability, T/C reads like this: (compound 0.00949 µM) 1.22% and 3.94% and 1.23%; (compound 0.03 µM) 1.16% and 3.82% and 0.82%; (compound 0.0949 µM) 1.19% and 4.14% and 0.91%; (compound 0.3 µM) 1.37% and 3.79% and 0.88%; (compound 0.949 µM) 1.35% and 4.02% and 0.84%; (compound 3 µM) 1.37% and 3.65% and 1.07%. The IC50 (curve of compound) was < 9.49 nM.

As for `CC(C)n1c(=O)n(C)c2cnc3cc(F)c(-c4ccc(OCCCN5CCCCC5)nc4)cc3c21`, the viability, T/C was 91.8% and 79.6% and 91.9% (compound 0.0316 µM); 62.7% and 60.5% and 86.8% (compound 0.1 µM); 77.7% and 54.9% and 93.9% (compound 0.316 µM); 76.7% and 57.7% and 85.2% (compound 1 µM); 66.6% and 43.2% and 68.5% (compound 3.16 µM); 23.9% and 14.7% and 17.5% (compound 10 µM). For the same compound, the IC50 (curve of compound) is 4950 nM and 1310 nM and 4790 nM.

Take `CC1COCCN1c1cc(-c2ccnn2C)c2ccnc(-c3ccn[nH]3)c2n1` (stereo not given): the viability, T/C is, setting by setting: (compound 0.1 µM) 0.66% and 1.94% and 4.83%; (compound 0.316 µM) 0.63% and 0.89% and 0.78%; (compound 1 µM) 0.57% and 0.81% and 0.58%; (compound 3.16 µM) 0.43% and 0.84% and 0.58%; (compound 10 µM) 0.61% and 1.42% and 0.85%. Further, the IC50 (curve of compound) is < 31.6 nM.
